In US20230279016A1, “Tetrahydropyrazolopyrimidines and Related Analogs for Inhibiting YAP/TAZ-TEAD” (THE KATHOLIEKE UNIVERSITEIT LEUVEN, priority 2021, published 2023):

Legend:
Assay type in all cases: cell-based
[1] = system: NCI-H2052 mesothelioma cell line; assay: Mesothelioma cell line proliferation assay, NCI-H2052; details: NCI-H2052, 6 days with compound, cell viability by ATPlite
Experimental: (§1) Mesothelioma cell lines, NCI-H226 and NCI-H2052 (all sourced from the ATCC cell culture collection) are plated in 96-well plates (Corning® 96 Well White Polystyrene Microplate clear flat bottom, white polystyrene (TC-Treated)), at 1500 cells/well in full medium (RPMI 1640 ATCC modification with L-glutamine, HEPES, Phenol Red, Sodium Pyruvate, High glucose, Low sodium bicarbonate and 10% fetal bovine serum). Cells are incubated overnight at 37° C. in an incubator with 5% CO2. Then compounds, dissolved in DMSO, are added in dose-response. Cells are incubated with compound dilutions for another 6 days at 37° C. in an incubator with 5% CO2. Cell viability is quantitated using the ATPlite kit (Perkin-Elmer) and the luminescence is read-out using an Envision instrument (Perkin-Elmer). The amount of relative light units produced using the ATPlite kit is used to calculated percent of inhibition.
(§2) The activities of example compounds tested are depicted in the table below. The activity ranges A, B and C refer to EC50 values in the mesothelioma cell line proliferation assay as described as follows: “A”: EC50 <1 μM; “B” : 1 μM EC50 ≤10 μM and “C” : EC50 >10 μM. NT: not tested.

[2] = system: YAP/TAZ-TEAD transcription; assay: Reporter gene assay for measuring the inhibition of YAP/TAZ-TEAD transcription (TEAD-responsive element luciferase reporter in Hek293T cells); details: Hek293T cells transiently transfected with TEAD-responsive element luciferase reporter, 24 hours incubation
Outline: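 Hek293T cells transiently transfected with TEAD-responsive luciferase reporter, exposed to compound for 24 h at 37° C/5% CO2, then read by luminescence. Percent inhibition normalized to vehicle (0%) and positive control inhibitor (100%); EC50 reported as activity ranges.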

[3] = system: NCI-H226 mesothelioma cell line; assay: Mesothelioma cell line proliferation assay, NCI-H226; details: NCI-H226, 6 days with compound, cell viability by ATPlite
Experimental: as §1, §2

SMILES | EC50 ([1]; Homo sapiens, NCI-H2052, 144 h) | EC50 ([2]; Homo sapiens, HEK-293T, 24 h) | EC50 ([3]; Homo sapiens, NCI-H226, 144 h) | EC50 [1] | EC50 [2] | EC50 [3]
C=CC(=O)NCC1CN(c2ccc(C(F)(F)F)cn2)c2ccnn2C1 (single isomer, unassigned) [Cpd. No. 008-En1, (R)- or (S)-N-((4-(5-(trifluoromethyl)pyridin-2-yl)-4,5,6,7-tetrahydropyrazolo[1,5-a]pyrimidin-6-yl)methyl)acrylamide] | < 1000 nM | < 1000 nM | < 1000 nM |  |  | 
C=CC(=O)NCC1CN(c2ccc(C(F)(F)F)cn2)c2ccnn2C1 (single isomer, unassigned) [Cpd. No. 008-En2, (R)- or (S)-N-((4-(5-(trifluoromethyl)pyridin-2-yl)-4,5,6,7-tetrahydropyrazolo[1,5-a]pyrimidin-6-yl)methyl)acrylamide] |  |  |  | < 1000 nM | < 1000 nM | < 1000 nM
C=CC(=O)NCC1CN(c2ccc(OC(F)(F)F)cc2)c2ccnn2C1 (single isomer, unassigned) [Cpd. No. 011-En1, (R)- or (S)-N-((4-(4-(trifluoromethoxy)phenyl)-4,5,6,7-tetrahydropyrazolo[1,5-a]pyrimidin-6-yl)methyl)acrylamide] |  |  |  | < 1000 nM | < 1000 nM | < 1000 nM
C=CC(=O)NCC1CN(c2ccc(OC(F)(F)F)cc2)c2ccnn2C1 (single isomer, unassigned) [Cpd. No. 011-En2, (R)- or (S)-N-((4-(4-(trifluoromethoxy)phenyl)-4,5,6,7-tetrahydropyrazolo[1,5-a]pyrimidin-6-yl)methyl)acrylamide] |  |  |  | > 10000 nM | < 1000 nM | < 1000 nM
C=CC(=O)NCC1CN(c2ccc(C(C)C)cc2)c2ccnn2C1 (single isomer, unassigned) [Cpd. No. 013-En1, (R)- or (S)-N-((4-(4-isopropylphenyl)-4,5,6,7-tetrahydropyrazolo[1,5-a]pyrimidin-6-yl)methyl)acrylamide] |  |  |  | < 1000 nM | < 1000 nM | < 1000 nM
C=CC(=O)NCC1CN(c2ccc(C(C)C)cc2)c2ccnn2C1 (single isomer, unassigned) [Cpd. No. 013-En2, (R)- or (S)-N-((4-(4-ispropylphenyl)-4,5,6,7-tetrahydropyrazolo[1,5-a]pyrimidin-6-yl)methyl)acrylamide] |  |  |  | 1000 to 10000 nM | < 1000 nM | < 1000 nM

Further lines, results first:

EC50 ([1]; Homo sapiens, NCI-H2052, 144 h) | EC50 ([2]; Homo sapiens, HEK-293T, 24 h) | EC50 ([3]; Homo sapiens, NCI-H226, 144 h) | EC50 [1] | EC50 [2] | EC50 [3] | SMILES
 |  |  | < 1000 nM | < 1000 nM | < 1000 nM | C=CC(=O)NCC1CN(c2ccc(OC(F)F)cc2)c2ccnn2C1 (single isomer, unassigned) [Cpd. No. 012-En1, (R)- or (S)-N-((4-(4-(difluoromethoxy)phenyl)-4,5,6,7-tetrahydropyrazolo[1,5-a]pyrimidin-6-yl)methyl)acrylamide]
 |  |  | > 10000 nM | < 1000 nM | < 1000 nM | C=CC(=O)NCC1CN(c2ccc(OC(F)F)cc2)c2ccnn2C1 (single isomer, unassigned) [Cpd. No. 012-En2, (R)- or (S)-N-((4-(4-(difluoromethoxy)phenyl)-4,5,6,7-tetrahydropyrazolo[1,5-a]pyrimidin-6-yl)methyl)acrylamide]
< 1000 nM | < 1000 nM | < 1000 nM |  |  |  | C=CC(=O)NCC1CN(c2ccc(C(C)(C)C)cc2)c2ccnn2C1 (single isomer, unassigned) [Cpd. No. 014-En1, (R)- or (S)-N-((4-(4-(tert-butyl)phenyl)-4,5,6,7-tetrahydropyrazolo[1,5-a]pyrimidin-6-yl)methyl)acrylamide]
 |  |  | < 1000 nM | < 1000 nM | < 1000 nM | C=CC(=O)NCC1CN(c2ccc(C(F)(F)F)cc2F)c2ccnn2C1 (single isomer, unassigned) [Cpd. No. 016-En1, (R)- or (S)-N-((4-(2-fluoro-4-(trifluoromethyl)phenyl)-4,5,6,7-tetrahydropyrazolo[1,5-a]pyrimidin-6-yl)methyl)acrylamide]
